Positions of bridges follow the written chain, without caps; N, C: chain ends. Residues, ends and D or L forms follow the SMILES beside them.
Legend:
[1] = test system: male mice of the C57BL/6 strain; assay: In vivo mouse study: white blood cell, neutrophil and lymphocyte populations after 14 days of subcutaneous dosing; conditions: for increase in neutrophil population compared to mice in the control group / increase in the white blood cell population compared to mice in the control group: Day 14, vs control group without any treatment; for Lymphocytes / Neutrophils / White Blood Cells: Day 14 blood, s.c. over 14 days, peptide 80 μg/kg once daily, G-CSF 10 μg/kg once daily, EPO 600 IU/kg Days 1, 4, 7, 10, 14, group mean
From the text: In vivo Test System. Mouse was selected as the in vivo test system. Sufficient male mice of the C57BL/6 strain was obtained. The animals was obtained as weanlings of about 24-27 days of age on arrival. At randomization, their body weights were within ±20% of the overall mean for each sex. The health care and welfare of the mice were maintained in accordance with the requirement of the Animals (Scientific Procedures) Act 1986 UK. All animals were given clinical inspection for ill health on arrival. They were acclimatized for about three weeks and a veterinary inspection was performed before the start of dosing to ensure their suitability for study. The mice were assigned to treatment groups during the acclimatization period using a total randomization procedure. Group mean body weights were calculated and inspected to ensure there were no unacceptable difference between groups.
Preparation of Administered Formulation of [Leu^27]cyclo(Glu^22-Lys^26)-hPTH-(1-31)-NH2. The bulk freeze-dried peptide [Leu^27]cyclo(Glu^22-Lys^26)-hPTH-(1-31)-NH2 (SEQ ID NO: 4) was dissolved in 0.01 M acetic acid. The concentration of peptide in the solution was 1 μg/μL. The solution was re-aliquotted into dosing vials and kept frozen at approximately −70° C. The vials were then freeze-dried at the temperature lower than −20° C. and stored frozen until required. The freeze-dried aliquots for injection was reconstituted daily. The peptide was dissolved in an appropriate volume of purified water to an approximate concentration of 2-3 mg/mL. The phosphate-buffered saline (pH=7.4) was added to give the final required concentration and the pH value of the final solution is approximately 7.2. The capped vials were mixed thoroughly to ensure peptide was fully dissolved prior to use. Aseptic techniques and glass vials were used throughout dose preparation.
Preparation of Administered Formulation of G-CSF. G-CSF was provided at a concentration of 300 μg/mL in sorbito, sodium acetate and polysorbate 80 in water for injection. The stock solution was diluted accordingly with water for injection to provide the correct dosing concentration.
Preparation of Administered Formulation of EPO. EPO was provided at a concentration of 40,000 IU/mL in polysorbate 80, sodium chloride, sodium dihydrogen phosphate dihydrate, disodium phosphate dihydrate, glycine and water for injection. The stock solution was diluted accordingly with phosphate buffered solution to provide the correct dosing concentration.
In vivo Mouse Study. The peptide [Leu^27]cyclo(Glu^22-Lys^26)-hPTH-(1-31 )-NH2 (SEQ ID NO: 4), G-CSF or EPO were administered subcutaneously over 14 days. The mice were dosed as follows:
The peptide [Leu^27]cyclo(Glu^22-Lys^2 1)-hPTH-(1-3 I)-NH2 was administered to all mice in Groups 2, 3, 4 and 5 once daily for fourteen days at a dose level of 80 μg/kg.
Mice in Group 3, 4 and 5 also received EPO and/or G-CSF. EPO was administered on Days 1, 4, 7, 10 and 14 at a dose of 600 IU/kg. G-CSF was administered once daily for fourteen days at a dose level of 10 μg/kg.
Mice in 6, 7, 8 received EPO and/or G-CSF. EPO was administered on Days 1, 4, 7, 10 and 14 at a dose level of 600 IU/kg. G-CSF was administered once daily for fourteen days at a dose level of 10 μg/kg.
On Day 14, blood samples (0.5 mL EDTA nominal, 0.6 mL lithium heparin nominal) were withdrawn from all mice and were collected into lithium heparin tubes. The tubes were centrifuged and the plasma were separated and analyzed.

healthy older volunteers = assay: Phase I clinical trial: changes in blood cell populations from baseline to Day 7; assay type: in vivo, human; conditions: for effect on white blood cell population, especially neutrophil population: healthy adults, compared to placebo
Experimental: A Phase I, single-center, randomized double blind, placebo-controlled, multiple-escalating-dose study in healthy older volunteers was carried out for the peptide [Leu^27]cyclo(Glu^22-Lys^2 1)-hPTH-(1-31)-NH2 (SEQ ID NO: 4). Subjects were healthy males and females (non-reproductive potential), aged 40 to 65 years. […] Subcutaneous injections of placebo or the peptide with a dosage of 10 μg, 20 μg, 40 μg, 60 μg, or 80 μg was administered daily for 7 days. For each dosage level, 2 subjects (I male and I female) received placebo and 6 subjects (3 males and 3 females) received the peptide daily.
The number of white blood cells and the number neutrophils in a subject treated with the peptide increase as the dosage increases until it reaches the maximum at the dosage level of 60 μg. Increase in the number of white blood cells in subject treated with 60 μg of [Leu^27]cyclo(Glu^22-Lys^26)-hPTH-(1-31)-NH2 at Day 7 from the baseline level was about 8 times of that in subjects treated with placebo.

`CC[C@H](C)[C@H](NC(=O)[C@H](CCC(=O)O)NC(=O)[C@H](CO)NC(=O)[C@@H](NC(=O)[C@@H](N)CO)C(C)C)C(=O)N[C@@H](CCC(N)=O)C(=O)N[C@@H](CC(C)C)C(=O)N[C@@H](CCSC)C(=O)N[C@@H](Cc1c[nH]cn1)C(=O)N[C@@H](CC(N)=O)C(=O)N[C@@H](CC(C)C)C(=O)NCC(=O)N[C@@H](CCCCN)C(=O)N[C@@H](Cc1c[nH]cn1)C(=O)N[C@@H](CC(C)C)C(=O)N[C@@H](CC(N)=O)C(=O)N[C@@H](CO)C(=O)N[C@@H](CCSC)C(=O)N[C@@H](CCC(=O)O)C(=O)N[C@@H](CCCNC(=N)N)C(=O)N[C@H](C(=O)N[C@H]1CCC(=O)NCCCC[C@@H](C(=O)N[C@@H](CC(C)C)C(=O)N[C@@H](CC(C)C)C(=O)N[C@@H](CCC(N)=O)C(=O)N[C@@H](CC(=O)O)C(=O)N[C@H](C(N)=O)C(C)C)NC(=O)[C@H](CCCNC(=N)N)NC(=O)[C@H](CC(C)C)NC(=O)[C@H](Cc2c[nH]c3ccccc23)NC1=O)C(C)C` [[Leu^27]cyclo(Glu^22-Lys^26)-hPTH-(1-31)-NH2] (H-SVSEIQLMHNLGKHLNSMERVEWLRKLLQDV-NH2; lactam 22-26; N-terminus assumed) was tested, and the “increase in lymphocyte population” value ([1]; Day 14, vs control group) was roughly 20%, the “increase in neutrophil population compared to mice in the control group” value [1] was roughly 75% and the “increase in the white blood cell population compared to mice in the control group” value [1] was roughly 26%. For the same molecule, the Lymphocytes [1] was 3.7 ± 1.92 1000/cmm, the Neutrophils [1] was 0.7 ± 0.35 1000/cmm and the “White Blood Cells” value [1] was 4.8 ± 2.13 1000/cmm. For the same molecule, the “Neutrophil, change in mean from baseline to Day 7” value (“Neutrophil, change in mean” for short) (healthy older volunteers; 10 μg s.c. daily for 7 days) was 1.22 x e^9/L, the “Platelet, change in mean from baseline to Day 7” value (“Platelet, change in mean” for short) (healthy older volunteers; 10 μg s.c. daily for 7 days) was 19.80 x e^9/L and the “Relative Neutrophil Count, change in mean from baseline to Day 7” value (shortened to “Relative Neutrophil Count, change”) (healthy older volunteers; 10 μg s.c. daily for 7 days) was 4%. The “White Blood Cells, change in mean from baseline to Day 7” value (“White Blood Cells, change in mean” for short) (healthy older volunteers; 10 μg s.c. daily for 7 days) was 1.50 x e^9/L, the “Neutrophil, change in mean” value (healthy older volunteers; 20 μg s.c. daily for 7 days) was 1.22 x e^9/L and the “Platelet, change in mean” value (healthy older volunteers; 20 μg s.c. daily for 7 days) was 16.83 x e^9/L. The “Relative Neutrophil Count, change” value (healthy older volunteers; 20 μg s.c. daily for 7 days) was 3%, the “White Blood Cells, change in mean” value (healthy older volunteers; 20 μg s.c. daily for 7 days) was 1.75 x e^9/L and the “Neutrophil, change in mean” value (healthy older volunteers; 40 μg s.c. daily for 7 days) was 2.88 x e^9/L. The “Platelet, change in mean” value (healthy older volunteers; 40 μg s.c. daily for 7 days) was 28.50 x e^9/L, the “Relative Neutrophil Count, change” value (healthy older volunteers; 40 μg s.c. daily for 7 days) was 12% and the “White Blood Cells, change in mean” value (healthy older volunteers; 40 μg s.c. daily for 7 days) was 3.23 x e^9/L. The “Increase in the number of white blood cells at Day 7 from baseline relative to that in subjects treated with placebo” value (healthy older volunteers; 60 μg s.c. daily for 7 days) was “about 8 times”, the “Neutrophil, change in mean” value (healthy older volunteers; 60 μg s.c. daily for 7 days) was 4.53 x e^9/L and the “Platelet, change in mean” value (healthy older volunteers; 60 μg s.c. daily for 7 days) was 47.83 x e^9/L. The “Relative Neutrophil Count, change” value (healthy older volunteers; 60 μg s.c. daily for 7 days) was 16%, the “White Blood Cells, change in mean” value (healthy older volunteers; 60 μg s.c. daily for 7 days) was 4.65 x e^9/L and the “Neutrophil, change in mean” value (healthy older volunteers; 80 μg s.c. daily for 7 days) was 4.40 x e^9/L. For the same molecule, the “Platelet, change in mean” value (healthy older volunteers; 80 μg s.c. daily for 7 days) was 39.50 x e^9/L, the “Relative Neutrophil Count, change” value (healthy older volunteers; 80 μg s.c. daily for 7 days) was 17% and the “White Blood Cells, change in mean” value (healthy older volunteers; 80 μg s.c. daily for 7 days) was 4.40 x e^9/L. The “increase in population of neutrophils at Day 7 relative to that for subjects treated with placebo” value (healthy older volunteers; Day 7, s.c. daily for 7 days) was “about 50 fold”, the “platelet count” value (healthy older volunteers; dosage level of 60 μg and 80 μg, s.c. daily for 7 days) was “Significant increase” and the “effect on white blood cell population, especially neutrophil population” value (healthy older volunteers; s.c. daily for 7 days) was “significant stimulating effect”. For the same molecule, the “effect on white blood cell population, especially neutrophil population” value (healthy older volunteers; s.c. daily for 7 days, listed as cyclic peptide of SEQ ID NO: 4) was “significant increase”.

For “EPO: erythropoietin, an erythropoiesis regulator”, the Lymphocytes [1] was 3.5 ± 1.12 1000/cmm, the Neutrophils [1] was 0.5 ± 0.49 1000/cmm and the “White Blood Cells” value [1] was 4.3 ± 1.56 1000/cmm.

B1: G-CSF: granulocyte colony-stimulating factor, a hematopoietic growth factor (protein, UniProt P09919 31-207, looked up)
Granulocyte …: TPLGPASSLPQSFLLKCLEQVRKIQGDGAALQEKLVSECATYKLCHPEELVLLGHSLGIPWAPLSSCPSQALQLAGCLSQLHSGLFLYQGLLQALEGISPELGPTLDTLQLDVADFATTIWQQMEELGMAPALQPTQGAMPAFASAFQRRAGGVLVASHLQSFLEVSYRVLRHLAQP
B1 was tested, and the “increase in neutrophil population compared to mice in the control group” value [1] was roughly 175%, the “increase in the white blood cell population compared to mice in the control group” value [1] was roughly 20% and the Lymphocytes [1] was 3.0 ± 1.30 1000/cmm. The Neutrophils [1] was 1.1 ± 0.25 1000/cmm and the “White Blood Cells” value [1] was 4.5 ± 1.36 1000/cmm.

Source: patent publication US20090022684A1, “Methods for hematopoietic stimulation” (priority 2006, published 2009)
